# According to article PMC10578023 (Cell Communication and Signaling : CCS, 2023):
# pIC50: −log10 of the molar value.
# Experiments:
# [1] = system: TYK2/JAK1; test: IL-23-induced pSTAT3 in human Th17 cells; format: cell-based
# Description: Human naïve CD4^+ T cells were separated using a human naïve CD4^+ T-cell isolation kit (StemCell, #17,852), and then cells were stimulated with anti-CD3 monoclonal antibody and anti-CD28 monoclonal antibody for 7–10 days under the following Th17-skewing treatments: IL-6, IL-23, IL-1β and transforming growth factor-β. Half of the medium was replaced with fresh medium containing a stimulant to induce differentiation every other day. Th17 cells were incubated overnight at 37 °C for deactivation. Cells were reinoculated on 96-well plates and cocultured with gradient-diluted QL-1200186 for 1 h and then stimulated with recombinant human IL-23 (ACRO: #IL-B-H52 WS) for 0.5 h. Cells were collected, and phosphorylation of STAT3 was quantified according to the MFI.
# [2] = system: TYK2/JAK2; test: IL-12/IL-18-induced IFNγ production in human whole blood, ELISA; format: cell-based; conditions: IL-12-induced
# Description: The inhibitory effect of QL-1200186 on IL-12/IL-18-induced IFNγ production in NK cells or human whole blood was determined by enzyme-linked immunosorbent assay (ELISA). NK92 cells were stimulated with recombinant human IL-12 (2 ng/mL; 200–12; PeproTech, Cranbury, NJ, USA) and recombinant human IL-18 (5 ng/mL; 9124-IL-050/CF; R&D Systems, Minneapolis, MN, USA) with or without QL-1200186 for 24 h at 37 °C. For human whole blood cells, whole blood (200 μL) was preincubated with the compound for 1 h and then stimulated with recombinant human IL-12 (2 ng/mL) or recombinant human IL-18 (10 ng/mL) for 24 h. After centrifugation, the supernatant was collected, and IFNγ production in the supernatant was measured with human IFNγ ELISA kits according to the manufacturer’s instructions (Biolegend, 430,104).
# [3] = molecular target: JAK2 (JH1) (Homo sapiens, UniProt O60674); test: JH1 kinase assay, HTRF KinEASE-TK; format: biochemical
# Sequence of JAK2 (JH1) (O60674 849-1124 limits assumed): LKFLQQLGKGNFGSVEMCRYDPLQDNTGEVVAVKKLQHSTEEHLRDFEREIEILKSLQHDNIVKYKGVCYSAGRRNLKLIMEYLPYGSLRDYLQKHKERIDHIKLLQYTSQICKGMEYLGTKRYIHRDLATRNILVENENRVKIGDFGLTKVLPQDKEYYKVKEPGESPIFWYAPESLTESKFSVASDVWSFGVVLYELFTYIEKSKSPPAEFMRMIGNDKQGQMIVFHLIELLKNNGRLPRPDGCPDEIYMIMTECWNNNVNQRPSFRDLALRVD
# Description: (§1) We measured the ability of a compound to bind to JAK1/2/3 and the TYK2 JH1 domain by using HTRF® KinEASE™-TK kits (Millipore, Bedford, MA, USA). JAK1/2/3 and the TYK2 JH1 domain in assay buffer were added to various concentrations of QL-1200186 and incubated for 15 min at RT. Then, the plate was incubated with the biotin-labeled TK substrate and adenosine triphosphate for 45 min at RT. Next, SA-XL665 and TK antibody-Eu3 were added to the detection buffer and incubated for 1 h at RT. The HTRF signal was measured on a plate reader (Envision).
# [4] = molecular target: JAK3 (JH1) (Homo sapiens, UniProt P52333); test: JH1 kinase assay, HTRF KinEASE-TK; format: biochemical
# Sequence of JAK3 (JH1) (P52333 822-1111 limits assumed): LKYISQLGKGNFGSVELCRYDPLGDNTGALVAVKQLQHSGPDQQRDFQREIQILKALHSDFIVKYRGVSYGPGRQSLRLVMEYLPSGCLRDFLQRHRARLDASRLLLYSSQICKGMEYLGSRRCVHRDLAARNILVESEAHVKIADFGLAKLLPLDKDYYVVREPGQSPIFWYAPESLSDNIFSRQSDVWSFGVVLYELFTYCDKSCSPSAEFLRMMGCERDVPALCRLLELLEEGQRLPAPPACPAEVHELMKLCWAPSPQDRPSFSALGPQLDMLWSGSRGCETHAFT
# Description: as §1
# [5] = molecular target: T1, TYK2 JH1 domain (Homo sapiens, UniProt P29597); test: JH1 kinase assay, HTRF KinEASE-TK; format: biochemical
# T1 construct: JAK1/2/3 and the TYK2 JH1 domain in assay buffer were added
# T1 sequence (P29597 897-1176 limits assumed): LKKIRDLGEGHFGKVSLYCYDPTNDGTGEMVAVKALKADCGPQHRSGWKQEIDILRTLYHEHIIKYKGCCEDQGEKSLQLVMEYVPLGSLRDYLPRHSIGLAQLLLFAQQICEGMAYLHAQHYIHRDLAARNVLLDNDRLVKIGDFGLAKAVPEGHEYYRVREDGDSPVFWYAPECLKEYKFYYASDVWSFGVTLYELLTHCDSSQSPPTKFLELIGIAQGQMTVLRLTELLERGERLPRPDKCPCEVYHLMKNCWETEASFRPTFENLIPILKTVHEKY
# Description: as §1
# [6] = Pharmacokinetic study in C57BL/6 mice; format: in vivo
# Description: The PK study was conducted using healthy male C57BL/6 mice (18–22 g, n = 6). Mice were fed and given free access to water prior to dosing. QL-1200186 was administered via oral or intravenous routes at doses of 10 mg/kg and 1 mg/kg, respectively. Blood samples were collected at 0.0833, 0.25, 0.5, 1, 2, 4, 8 and 24 h from the saphenous vein. Plasma was separated within 1 h of sampling by centrifugation at 1000 g. Liquid chromatography–tandem mass spectrometry of the sample was carried out on a mass spectrometer (API 5500; AB Sciex, Framingham, MA, USA). Chromatographic separation was achieved using a C18 column (2.6 µm, 50 × 3.0 mm; Kinetex; Phenomenex, Torrance, CA, USA). The main PK parameters were calculated by WinNonlin 8.0 (Certara, Princeton, NJ, USA).
# [7] = molecular target: T2, TYK2 (Homo sapiens, UniProt P29597); test: IFNα-stimulated TYK2 phosphorylation in Jurkat cells, western blot; format: cell-based; conditions: IFNα 1000 U/mL
# T2 construct: host or cells: Jurkat cells
# T2 sequence (P29597 whole entry): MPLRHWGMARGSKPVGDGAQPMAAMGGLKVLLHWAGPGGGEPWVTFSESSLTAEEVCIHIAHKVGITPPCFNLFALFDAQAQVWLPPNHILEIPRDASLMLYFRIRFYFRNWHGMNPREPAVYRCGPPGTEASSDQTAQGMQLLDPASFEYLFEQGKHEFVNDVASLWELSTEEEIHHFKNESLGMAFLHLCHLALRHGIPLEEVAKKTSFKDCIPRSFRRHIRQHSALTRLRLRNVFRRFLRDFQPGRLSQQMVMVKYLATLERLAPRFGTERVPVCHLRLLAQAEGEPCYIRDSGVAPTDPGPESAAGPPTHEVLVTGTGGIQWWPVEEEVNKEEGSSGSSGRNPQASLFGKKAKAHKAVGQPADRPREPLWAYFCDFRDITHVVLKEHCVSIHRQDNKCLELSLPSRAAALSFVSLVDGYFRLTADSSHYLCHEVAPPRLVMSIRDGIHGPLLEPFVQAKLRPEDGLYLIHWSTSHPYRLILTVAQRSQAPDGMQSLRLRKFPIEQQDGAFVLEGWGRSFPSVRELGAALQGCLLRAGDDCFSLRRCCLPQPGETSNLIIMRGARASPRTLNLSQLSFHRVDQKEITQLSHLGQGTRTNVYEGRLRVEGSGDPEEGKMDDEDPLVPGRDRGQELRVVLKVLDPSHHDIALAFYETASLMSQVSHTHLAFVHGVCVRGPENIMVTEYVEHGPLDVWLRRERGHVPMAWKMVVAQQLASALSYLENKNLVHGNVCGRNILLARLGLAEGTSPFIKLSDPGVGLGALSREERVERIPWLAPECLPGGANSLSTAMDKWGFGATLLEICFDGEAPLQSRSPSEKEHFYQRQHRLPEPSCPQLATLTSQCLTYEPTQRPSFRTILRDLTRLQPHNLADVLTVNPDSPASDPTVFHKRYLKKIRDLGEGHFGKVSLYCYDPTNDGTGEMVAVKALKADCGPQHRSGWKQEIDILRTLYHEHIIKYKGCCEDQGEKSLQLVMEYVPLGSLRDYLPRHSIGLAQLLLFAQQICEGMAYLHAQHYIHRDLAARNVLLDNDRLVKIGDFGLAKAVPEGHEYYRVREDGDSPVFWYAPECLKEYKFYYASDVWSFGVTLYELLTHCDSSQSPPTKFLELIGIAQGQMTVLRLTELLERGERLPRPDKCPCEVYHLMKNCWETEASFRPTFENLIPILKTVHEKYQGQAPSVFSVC
# Excerpt: Then, the phosphorylation of Tyr-1054 and Tyr-1055 in Jurkat cells (Cobioer Biosciences: CBP61444) was detected by western blotting to determine the inhibitory effect of QL-1200186 on TYK2 receptor-mediated activation.
# [8] = system: TYK2/JAK1; test: IFNα HEK293 (HEK-Blue IFN-α/β) reporter gene assay; format: cell-based, human
# Description: HEK-Blue™ IFN-α/β cells were used to determine the activity of QL-1200186. After 24 h of incubation with QL-1200186, HEK-Blue™ IFN-α/β cells (Invivogen; NKB-IFNAB) were stimulated with human IFNα (200 U/mL; catalog number: 11200–2; PBL Assay Science; Piscataway, NJ, USA) for 6 h. Stimulation of HEK-Blue IFN-α/β cells with human IFNα activates the JAK/STAT/ISGF3 pathway and subsequently induces the production of SEAP. Levels of SEAP in the supernatant were readily assessable using QUANTI-Blue™ Solution (InvivoGen, San Diego, CA, USA).
# [9] = system: TYK2/JAK1; test: IFNα-induced pSTAT1 in CD3+ T cells of human PBMCs; format: cell-based
# Description: The reaction was terminated by collecting cells for surface staining. Cells were stained with anti-CD3 FITC (300406; Biolegend, San Diego, CA, USA), anti-CD19 APC (555415; BD Biosciences) or aqua fluorescent reactive dye BV421 (L34966A; Invitrogen, Carlsbad, CA, USA) antibodies for 20 min. After washing, fixation buffer (557870; BD Biosciences) was added and incubated for 10 min. Cells were washed and permeabilized on ice using Perm III Buffer (558050; BD Biosciences). Cells were stained with PE anti-PSTAT1 antibody (562069; BD Biosciences) for 30 min and analyzed by flow cytometry.
# [10] = molecular target: JAK1 (JH1) (Homo sapiens, UniProt P23458); test: JH1 kinase assay, HTRF KinEASE-TK; format: biochemical
# Sequence of JAK1 (JH1) (P23458 875-1153 limits assumed): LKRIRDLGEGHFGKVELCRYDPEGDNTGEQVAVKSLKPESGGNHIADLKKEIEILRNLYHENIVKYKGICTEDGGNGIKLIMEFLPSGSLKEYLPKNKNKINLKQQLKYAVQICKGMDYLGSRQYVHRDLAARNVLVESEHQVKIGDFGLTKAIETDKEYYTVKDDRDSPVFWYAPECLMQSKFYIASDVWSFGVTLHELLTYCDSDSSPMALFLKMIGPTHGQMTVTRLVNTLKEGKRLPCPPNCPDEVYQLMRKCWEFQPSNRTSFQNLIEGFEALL
# Description: We measured the ability of a compound to bind to JAK1/2/3 and the TYK2 JH1 domain by using HTRF® KinEASE™-TK kits (Millipore, Bedford, MA, USA). […] Next, SA-XL665 and TK antibody-Eu3 were added to the detection buffer and incubated for 1 h at RT. The HTRF signal was measured on a plate reader (Envision).
smiles,measurement,setting,value
"CNC(=O)c1cnc2cc1Nc1cc(cc(-c3ccn(C)n3)c1OC)CCOCc1cccc(n1)N2 [QL-1200186, 5^6-methoxy-N-methyl-5^5-(1-methyl-1H-pyrazol-3-yl)-8-oxa-2,4-diaza-1(2,6),3(2,4)-dipyridina-5(1,3)-benzenacyclononaphane-3^5-carboxamide]",pIC50,[1],8.99
same,IFNγ production in human whole blood,[2],significantly reduced
same,pIC50,[3],< 5.00
same,Kinase assay (JH1) JAK2 IC50,[3],did not show inhibitory activity
same,pIC50,[4],< 5.00
same,Kinase assay (JH1) JAK3 IC50,[4],did not show inhibitory activity
same,pIC50,[5],< 5.00
same,Kinase assay (JH1) TYK2 IC50,[5],did not show inhibitory activity
same,AUC,[6]; intravenous 1 mg/kg,1482 ng·h/mL
same,CL,[6]; intravenous 1 mg/kg,11.6 mL/min/kg
same,MRTInf,[6]; intravenous 1 mg/kg,1.22 h
same,T1/2,[6]; intravenous 1 mg/kg,1.45 h
same,Vss,[6]; intravenous 1 mg/kg,0.842 L/kg
same,AUC,[6]; oral 10 mg/kg,20320 ng·h/mL
same,Cmax,[6]; oral 10 mg/kg,3543 ng/mL
same,F (bioavailability),[6]; oral 10 mg/kg,137%
same,MRTInf,[6]; oral 10 mg/kg,4.34 h
same,T1/2,[6]; oral 10 mg/kg,2.73 h
same,IFNα-stimulated phosphorylation of TYK2 in Jurkat cells,[7],blocked IFNα-stimulated phosphorylation of TYK2 in Jurkat cells in a concentration-dependent manner
same,pIC50,[8],8.41
same,pIC50,[9],8.79
same,pIC50,[10],< 5.00
same,Kinase assay (JH1) JAK1 IC50,[10],did not show inhibitory activity
